Tests used:
Bovine heart PDE = Bovine heart PDE inhibition activity; assay type: biochemical; conditions: substrate [³H]-cyclic AMP, 37°C for 30 minutes; compound concentration not given
Procedure: [Bovine heart PDE inhibition activity]
Placed in a test tube were 50 µℓ of 0.5 M tris-HCl buffer (pH 7.5), 50 µℓ of 50 mM magnesium chloride, 50 µℓ of an enzyme solution (bovine heart, product of Boheringer Mannheim Yamanouchi Co., Ltd.), and a dimethylsulfoxide (DMSO) solution of the compound obtained in each example. Purified water was then added to a total volume of 450 µℓ, followed by incubation at 37°C for 3 minutes. Then, 50 µℓ or [³H]-cyclic AMP (0.01 mM, 1.0 x 1.0⁻⁶ dpm) as a substrate were added to initiate a reaction. After incubated at 37°C for 30 minutes, the test tube was heated for 3 minutes in a boiling water bath to terminate the reaction. After cooling, snake venem (500 µg) was added, followed by incubation at 37°C for 30 minutes. An ion-exchange resin ("Dowex-AG1-X8", trade name) was then added, followed by stirring and centrifugation. A supernatant was sampled and its radioactivity was measured by a liquid scintillation counter. Percent inhibition was determined in accordance with the following formula: [formula] where, C: Radioactivity when the compound in the example was not contained. S: Radioactivity when the compound in the example was added.

[1] = tested on: Platelet phosphodiesterase (PDE); assay: Platelet phosphodiesterase (PDE) inhibition activity in washed platelets; assay type: biochemical, rabbit; conditions: 500 µM as the final concentration of the compound; washed platelet mixture; substrate [³H]-cyclic AMP, 37°C for 30 minutes
Source text: [Preparation of washed platelets]
A rabbit was held on its back on a fixing table and, under non-anesthesia, the leg femoral artery was cannulated. Next, 2 mℓ of a 3.8% aqueous solution of sodium citrate were placed in a 20-mℓ plastic syringe and 18 mℓ of the arterial blood were collected. The syringe was caused to fall down 2-3 times so that its contents were mixed. The above procedures were repeated using 3-4 syringes. The blood so collected was transferred into a plastic-made test tube and centrifuged at 800 rpm for 10 minutes at room temperature to settle blood cells, whereby an upper layer (PRP) was obtained. The PRP was next centrifuged at 3000 rpm for 10 minutes so that platelets were collected. After 12.3 mM tris-HCl buffer (pH 7.4) containing 0.137 M of NaCl, 1.54 mM of EDTA and 20 mM of glucose was added to the platelets and pipetting was conducted thoroughly, centrifugation was conducted at 3000 rpm for 10 minutes. The above procedures were repeated twice. Precipitated platelets were re-suspended in the above tris-HCl buffer at a platelet concentration of 6.5 x 10⁻⁶ platelets/µℓ. They were used as washed platelets in the subsequent experiments.
[Platelet phosphodiesterase (PDE) inhibition activity]
Placed in a test tube were 50 µℓ of 0.5 M tris-HCl buffer (pH 7.5), 50 µℓ of 50 mM magnesium chloride, 200 µℓ of the washed platelet mixture, and a dimethylsulfoxide (DMSO) solution of the compound (500 µM as the final concentration of the compound) obtained in each example. Purified water was added to a total volume of 450 µℓ, followed by incubation at 37°C for 3 minutes. Then, 50 µℓ off [³H]-cyclic AMP (0.01 mM, 1.0 x 1.0⁻⁶ dpm) as a substrate were added to initiate a reaction. […] A supernatant was sampled and its radioactivity was measured by a liquid scintillation counter. Percent inhibition was determined in accordance with the following formula: [formula] where, C: Radioactivity when the compound in the example was not contained. S: Radioactivity when the compound in the example was added.

| Structure (SMILES) | Inhibition rate (%) Bovine heart PDE (Bovine heart PDE) | Inhibition rate (%) Platelet PDE [1] |
| --- | --- | --- |
| COc1cc2c(c(OC)c1OC)-c1c(cc(OC)c3c1OCO3)C[C@H]1COC(=O)C1=C2 [Test Compound 5, (3aR,Sbiar)-3a,4-Dihydro-6,9,10,11-tetramethoxy-7,8-methylenedioxybenzo[4,5:6,7]cycloocta[1,2-c]furan-1(3H)-one] | 2.8% | 44.0% |
| COc1cc2c(c(OC)c1OC)-c1c(cc3c(c1OC)OCO3)C[C@@H]1COC(=O)C1=C2 (single isomer, unassigned) [Test Compound 4, (3as,Sbiar)-3a,4-Dihydro-8,9,10,11-tetramethoxy-6,7-methylenedioxydibenzo[4,5:6,7]cycloocta-[1,2-c]furan-1(3H)-one] | 0.0% | 23.1% |
| COc1cc2c(c(OC)c1OC)-c1c(cc(O)c(O)c1OC)CC1COC(=O)C1=C2 (stereo not drawn) [Test Compound 6, (3aRS,SRbiar)-3a,4-Dihydro-6,7-dihydroxy-8,9,10,11-tetramethoxydibenzo[4,5:6,7]cycloocta[1,2-c]-furan-1(3H)-one] | 90.5% |  |
| COc1cc2c(c(OC)c1OC)-c1c(cc(OC)c(OC)c1OC)C[C@@H]1COC(=O)C1=C2 (single isomer, unassigned) [Test Compound 8] | 36.3% |  |
| COc1cc2c(c(OC)c1OC)-c1c(cc(O)c(O)c1OC)C[C@@H]1COC(=O)C1=C2 [Test Compound 1, (3aS,Rbiar)-3a,4-Dihydro-6,7-dihydroxy-8,9,10,11-tetramethoxydibenzo[4,5:6,7)cycloocta[1,2-c]furan-1(3H)-one] | 85.0% |  |
| COc1cc2c(c(OC)c1OC)-c1c(cc(OC)c3c1OCO3)C[C@@H]1COC(=O)C1=C2 [Test Compound 3, (3aS,Rbiar)-3a,4-Dihydro-6,9,10,11-tetramethoxy-7,8-methylenedioxydibenzo[4,5:6,7)cycloocta[1,2-c]furan-1(3H)-one] | 19.5% |  |
| COc1cc2c(c(OC)c1OC)-c1c(cc(OC)c(OC)c1OC)C[C@@H]1COC(=O)C1=C2 (single isomer, unassigned) [Test Compound 7] | 50.9% |  |
| COc1cc2c(c(OC)c1OC)-c1c(cc3c(c1OC)OCO3)C[C@@H]1COC(=O)C1=C2 (single isomer, unassigned) [Test Compound 2] | 0.0% | 25.3% |

Source: EP0594890A1, “Polycyclic compounds, their preparation and their use as phosphodiesterases inhibitors” (TSUMURA & CO., priority 1992, dated 1994)
